The source of these data is patent US20210283139A1, “BIFUNCTIONAL MOLECULES FOR TARGETING UCHL5” (AMPHISTA THERAPEUTICS LTD, priority 2018, published 2021).

Where only a bound is given, the exact number is not on record here.

What all share (type): cell-based
One series deals with T1, Brd4 (Homo sapiens, UniProt O60885).
T1 construct: endogenous in cells; host or cells: HEK293, HAP1, MV4-11
The series is described as follows: Mechanistic evaluation of Brd4 degradation in HAP1 cells (bortezomib, degrasyn or I-BET726 pre-treatment). As to conditions: 6 h. On the procedure:
(§1) Immunoblotting. proteins were separated by SDS-PAGE on NuPage 4-12% Bis-Tris gels, followed by transfer to Amersham Protran 0.45 NC nitrocellulose membrane (GE Healthcare) using wet transfer. Membranes were blocked using 5% w/v milk in Tris-buffered saline (TBS) with 0.1% Tween-20. Blots were probed (overnight at 4° C.) using anti-Brd2 (Abcam ab139690, 1:2,000 dilution), anti-Brd3 (Abcam ab50818, 1:500 dilution), and anti-Brd4 (Abcam ab128874, 1:1,000 dilution) primary antibodies, as appropriate. The next day, blots were washed with TBST and incubated (1 hr at RT) with anti-Tubulin hFAB-rhodamine (BioRad, 12004166) primary antibody, and either anti-rabbit IRDye 800CW (Licor 1:10,000 dilution) or anti-mouse IRDye 800CW (Licor 1:10,000 dilution) secondary antibody. Blots were developed using a Bio-Rad ChemiDoc MP Imaging System, and band quantification was performed using Image Studio software (LiCor). Band intensities were normalized to the tubulin loading control and reported as % of the average 0.1% DMSO vehicle intensity. Degradation data was plotted and analysed using Prism (Graphpad, version 8).
HAP1 (1×10^6) cells were seeded in standard 6-well plates (2 mL medium) overnight before pre-treatment with inhibitors (10 μM bortezomib, 5 μM degrasyn or 1 μM I-BET726). After a 0.5 h pre-incubation time, cells were subsequently treated with vehicle, 0.1 μM MZ1 or 0.1 μM 05IB9, yielding a final overall DMSO concentration of 0.2% v/v. After 6 h incubation, cells were washed with DPBS (Gibco) and lysed using 85 μL RIPA buffer (Sigma-Aldrich) supplemented with cOmplete Mini EDTA-free protease inhibitor cocktail (Roche) and benzonase. Lysates were clarified by centrifugation (20,000 g, 10 min, 4° C.) and the total protein content of the supernatant was quantified using a Bradford colorimetric assay. Samples were prepared using equal amounts of total protein and LDS sample buffer (Invitrogen).
Representative blots from HAP1 lysates in FIG. 9 show depletion of Brd4 protein levels following 6 h treatment with 0.1 μM 05IB9 or MZ1, in the presence and absence of 5 μM degrasyn and 10 μM bortezomib. Brd4 band intensities were normalized to β-tubulin loading control and reported in FIG. 9B as % of the average 0.1% DMSO vehicle intensity. Each bar is mean±SEM of three independent experiments performed in duplicate (n=3). […] Furthermore, excess […] competes with 05IB9, resulting in reduced degradation of Brd4.

Another series addresses T2, Brd4 (S) (Homo sapiens, UniProt O60885).
T2 construct: endogenous in cells; host or cells: HEK293, HeLa
The series is described as follows: Concentration-dependent BET degradation, immunoblot, HEK293 cells. As to conditions: 6 h treatment, 1 nM-10 μM; for Dmax: read-out: Dmax (%) maximum degradation observed. The essentials:
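Degradation after 6 h treatment at 1 nM-10 μM, quantified from tubulin-normalized western band intensities relative to 0.1% DMSO-treated cells.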
In general terms: A western blot detects proteins with antibodies after separation by electrophoresis.

A further series concerns the target Brd3 (Homo sapiens, UniProt Q15059). The series is described as above. Also on record: endogenous in cells; host or cells: HEK293. To be noted: HEK293, Brd3, 6 h treatment, 1 nM-10 μM; for Dmax: read-out: Dmax (%) maximum degradation observed. On the procedure: (§2) Cell culture. HeLa (CCL-2) and HEK293 (CRL-1573) cells were purchased from ATCC and cultured in DMEM medium (Gibco) supplemented with 10% FBS, 100 μg/mL penicillin/streptomycin and L-glutamine. Cells were grown at 37° C. and 5% CO2, and were kept no longer than 30 passages. All cell lines were routinely tested for mycoplasma contamination using MycoAlert kit from Lonza.
as §1
(§3) HeLa (5×10^5) and HEK293 (1×10^6) cells were seeded in standard 6-well plates (2 mL medium) overnight before treatment with compounds at the desired concentration (1 nM-10 μM), with a final DMSO concentration of 0.1% v/v. After 6 h treatment time, cells were washed with DPBS (Gibco) and lysed using 85 μL RIPA buffer (Sigma-Aldrich) supplemented with cOmplete Mini EDTA-free protease inhibitor cocktail (Roche) and benzonase. Lysates were clarified by centrifugation (20,000g, 10 min, 4° C.) and the total protein content of the supernatant was quantified using a Bradford colorimetric assay. Samples were prepared using equal amounts of total protein and LDS sample buffer (Invitrogen.
(§4) Representative blots in FIG. 3 show depletion of Brd2, Brd3 and Brd4 protein levels following treatment with increasing concentrations of representative compounds. Band intensities were normalized to the β-tubulin loading control and reported as % of the average 0.1% DMSO vehicle intensity, with each point representing mean±SEM of two independent experiments (n=2). Degradation data was plotted and analysed using Prism (Graphpad, version 8)

Another series deals with Brd2 (Homo sapiens, UniProt P25440). The series is described as above. On the set-up: endogenous in cells; host or cells: HEK293. To be noted: HEK293, Brd2, 6 h treatment, 1 nM-10 μM; for Dmax: read-out: Dmax (%) maximum degradation observed. On the procedure:
as §2, §1, §3, §4

In a further series the test system is MV4-11 cells. The series is described as follows: Anti-proliferative effect, CellTiter-Glo assay. As to conditions: MV4-11, CellTiter-Glo, 72 h incubation, 5 μM and below. On the procedure: The anti-proliferative effects of representative compounds were measured using the CellTiter-Glo assay (Promega). MV4-11 cells were incubated in a sterile, white, clear-bottomed 384-well cell-culture microplate (Greiner Bio-one), at 2× concentration in RPMI media and a volume of 25 μl. The next day, test compounds were serially diluted in RPMI media to 2× concentration, then added to cells to make a final volume of 50 μl. After a 72 h incubation 25 μl of CellTiter-Glo reagent was added to each well. Following 15 minute incubation the luminescence signal was read on a Pherastar FS. The final concentration of assay components are as follows: 3×10^5 cells/mL, 0.05% DMSO, 5 μM and below compound. Data (FIG. 11) was processed and dose-response curves generated using Prism 8 (Graphpad).
(In general: Cellular ATP, detected with luciferase, serves as a proxy for viable cell number.)

Chain of Brd2 (P25440 whole entry): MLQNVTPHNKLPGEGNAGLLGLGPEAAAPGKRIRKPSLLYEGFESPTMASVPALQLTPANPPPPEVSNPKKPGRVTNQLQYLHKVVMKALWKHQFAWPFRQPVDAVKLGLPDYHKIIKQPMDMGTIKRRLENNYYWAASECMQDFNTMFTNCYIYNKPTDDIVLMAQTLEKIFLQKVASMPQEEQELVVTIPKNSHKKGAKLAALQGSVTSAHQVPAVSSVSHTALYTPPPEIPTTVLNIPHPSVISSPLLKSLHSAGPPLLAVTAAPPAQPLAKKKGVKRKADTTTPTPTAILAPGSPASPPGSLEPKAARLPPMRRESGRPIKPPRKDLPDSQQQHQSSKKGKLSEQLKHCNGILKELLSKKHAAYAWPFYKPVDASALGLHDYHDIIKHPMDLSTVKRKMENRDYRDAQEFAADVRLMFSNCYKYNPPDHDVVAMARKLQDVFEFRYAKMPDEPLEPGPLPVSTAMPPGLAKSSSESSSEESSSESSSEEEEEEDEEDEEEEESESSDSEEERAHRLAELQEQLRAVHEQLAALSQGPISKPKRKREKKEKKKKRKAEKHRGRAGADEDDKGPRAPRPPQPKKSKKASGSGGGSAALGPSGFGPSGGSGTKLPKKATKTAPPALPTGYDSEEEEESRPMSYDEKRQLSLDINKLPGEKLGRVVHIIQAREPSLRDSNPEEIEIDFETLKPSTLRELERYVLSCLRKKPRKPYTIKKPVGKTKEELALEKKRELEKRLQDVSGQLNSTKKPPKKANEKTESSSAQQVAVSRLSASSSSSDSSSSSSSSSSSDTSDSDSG
Chain of Brd3 (Q15059 whole entry): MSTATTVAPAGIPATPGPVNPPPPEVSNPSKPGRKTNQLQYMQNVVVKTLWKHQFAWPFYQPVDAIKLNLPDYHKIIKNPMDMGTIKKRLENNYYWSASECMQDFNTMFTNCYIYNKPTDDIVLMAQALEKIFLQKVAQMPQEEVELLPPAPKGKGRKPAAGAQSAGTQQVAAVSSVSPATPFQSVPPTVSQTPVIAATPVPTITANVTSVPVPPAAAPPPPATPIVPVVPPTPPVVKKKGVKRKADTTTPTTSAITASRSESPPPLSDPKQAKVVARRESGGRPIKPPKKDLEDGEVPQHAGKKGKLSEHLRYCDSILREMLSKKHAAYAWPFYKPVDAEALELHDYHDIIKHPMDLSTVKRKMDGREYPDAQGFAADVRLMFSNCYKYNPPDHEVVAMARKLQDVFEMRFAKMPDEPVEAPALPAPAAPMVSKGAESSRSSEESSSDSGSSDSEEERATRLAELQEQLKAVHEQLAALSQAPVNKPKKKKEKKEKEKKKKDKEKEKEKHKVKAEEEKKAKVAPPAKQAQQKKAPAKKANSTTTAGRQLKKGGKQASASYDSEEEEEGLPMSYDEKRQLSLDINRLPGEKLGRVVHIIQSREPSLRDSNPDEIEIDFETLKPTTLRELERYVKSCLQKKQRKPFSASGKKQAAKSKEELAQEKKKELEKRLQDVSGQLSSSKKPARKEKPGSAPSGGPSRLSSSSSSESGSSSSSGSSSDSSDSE

What is called DC50 is the concentration at which degradation of the target reaches its halfway point. What is called Dmax is the largest share of the target that was removed. `CCCC(NC(=O)/C(C#N)=C/c1nccs1)c1ccc(OCCOCCOCCOCCOCCOCCOCCNC(=O)c2ccc(-c3ccc4c(c3)[C@H](Nc3ccc(Cl)cc3)C[C@H](C)N4C(C)=O)cc2)cc1` (some centres unmarked) [Example 05IB9]: the “Brd4 degradation in the presence of bortezomib or degrasyn” value on Brd4 (HAP1, 0.1 μM compound, 0.5 h pre-treatment with 10 μM bortezomib or 5 μM degrasyn) was “completely blocked in the presence of bortezomib and degrasyn”. In addition, on Brd4 (HAP1, 0.1 μM), the Brd4 protein levels entry is recorded as “depletion”. Besides, the DC50 at Brd4 (S), at Brd3 and at Brd2 was not above 50 nM each time. For the same molecule, the values for the Dmax on Brd4 (S), on Brd3 and on Brd2 were not below 71%, 51 to 70% and 51 to 70%, respectively. Moreover, in the series with MV4-11 cells, the “cytotoxicity profile (anti-proliferative effect)” value (“cytotoxicity profile” below) is “distinct from I-BET726 and inactive 05IB11”.
For `CCCC(NC(=O)/C(C#N)=C/c1cccc(Br)n1)c1ccc(OCCOCCOCCOCCOCCOCCOCCNC(=O)c2ccc(-c3ccc4c(c3)[C@H](Nc3ccc(Cl)cc3)C[C@H](C)N4C(C)=O)cc2)cc1` (some centres unmarked) [Example 05IB6], the values for the DC50 at Brd4 (S), at Brd3 and at Brd2 were not above 50 nM, 51 to 500 nM and 51 to 500 nM, respectively. Further, the values for the Dmax on Brd4 (S), on Brd3 and at Brd2 were not below 71%, 51 to 70% and 26 to 50%, respectively. In addition, the “cytotoxicity profile” value in the series with MV4-11 cells was “distinct from I-BET726 and inactive 05IB11”.
On to `CCCC(NC(=O)/C(C#N)=C/c1cccc(Br)n1)c1ccc(OCC=NOCC(=O)NCCOCCOCCOCCOCCOCCNC(=O)c2ccc3c(c2)[C@H](Nc2ccc(Cl)cc2)C[C@H](C)N3C(C)=O)cc1` (some centres unmarked) [Example 05IB3], for which the DC50 was not above 50 nM on Brd4 (S), not above 50 nM on Brd3 and 51 to 500 nM at Brd2. Besides, the greatest degradation seen (Dmax) at Brd4 (S), at Brd3 and on Brd2 was not below 71% each time. For the same molecule, the “cytotoxicity profile” value with MV4-11 cells was “distinct from I-BET726 and inactive 05IB11”.
